Assay results: patent publication US20130317037A1, “METHOD OF ADMINISTRATION AND TREATMENT” (GlaxoSmithKline Intellectual Property Development Limited, priority 2010, published 2013)
Where two headings read alike, the source gives them in different places.

Key:
KPL-1 = test: Panel A proliferation assay (CellTiter-Glo); HER2 2 copies, KRAS WT, PIK3CA p.E545K; format: cell-based, human; conditions: for IC50: Homo sapiens
Protocol: A total of 15 breast cancer cell lines were used in this study. […] Cells of each line were seeded into a 384-well microtiter plate at two cell densities. Low density ranges were 300-1800 cells/well, and a high density was 600 to 3600 cells/well). The plating density was determined by the rate of proliferation of the cell line in the absence of any inhibitor and varied amongst cell lines. High plating densities were double that of low density. Each cell density was plated in triplicate. […] In addition, there were 24 wells of dimethyl sulfoxide (DMSO)-treated controls at each density. After seeding, the cells were incubated at 37° C. in 5% CO2 for 24 hours. […] After a 72 h incubation, an equal volume of the CellTiter-Glo (CellTiter-Glo Luminescent Cell Viability Assay, Promega, Madison, Wis.) to that of the cell culture medium was added into each well of the plate. After the contents were mixed to induce cell lysis and stabilization, cell luminescence was recorded using a SpectraMax M5^e (Molecular Devices, Sunnyvale, Calif., USA)
Specifically, the midpoint of the growth window (the gIC50) falls half way between the number of cells at the time of compound addition (T=0) and the growth of control cells treated with DMSO. The gIC50 value serves as a metric for measuring the inhibition of proliferation in cancer cells. The curves for each seeding density for each cell line were manually inspected for both data quality and appropriateness of curve fitting. Where the starting data were poor the curve and subsequent gIC50s were excluded from further analysis. Cell line seedings were considered of poor quality when the r^2 value of the fitted curve was <0.75. Finally, where data quality permits, the Ymin values (defined as the maximum growth inhibition relative to the cell density at Time-zero) were calculated as a measure of cytotoxicity where data were of reasonable quality.

184A1 = test: in vitro; format: cell-based
Protocol: (§1) From the stock concentration, 8 serial dilutions (1:5) were made with DMSO.
(§2) Day −1: Plate cells in 100 μl volume in 96 well plate. • Note: Cell number seeded adjusted for growth characteristics, so that at time of assay for proliferation following three-day drug treatment, the control wells should still be in log-growth phase (sub-confluent). Day 0: Drug added to plate for treatment. • A time 0 plate was processed for the proliferation assay to establish a baseline reading at time when drug was added.
(§3) LBNL are following the protocols set up by the NCI/NIH DTP Human Tumor Cell Line Screen Process (http://dtp.nci.nih.gov/branches/btb/ivclsp.html) and summarized below.
(§4) [(Ti−Tz)/(C−Tz)]×100 for concentrations for which Ti>/=Tz
(§5) [(Ti−Tz)/(C−Tz)]×100=50, • which is the drug concentration resulting in a 50% reduction in the net growth in control cells during the drug incubation. TGI: Total growth inhibition is calculated from
(§6) Ti=Tz. • The drug concentration resulting in total growth inhibition (down to the ‘time 0’ baseline). LC50: Net loss of cell growth at 50% is calculated from
(§7) [(Ti−Tz)/Tz]×100=−50. • The concentration of drug resulting in a 50% reduction in the cell number at the end of the drug treatment as compared to that at the beginning (time 0) indicating a net loss of cells following treatment.
(§8) Values are calculated for each of these three parameters if the level of activity is reached; however, if the effect is not reached or is exceeded, the value for that parameter is expressed as greater or less than the maximum or minimum concentration tested.

AU565 = test: cells; format: cell-based
Protocol: as §1, §2, §3, §4, §5, §6, §7, §8

BT474 = test: cells; format: cell-based
Protocol: as §1, §2, §3, §4, §5, §6, §7, §8

BT549 = test: cells; format: cell-based
Protocol: as §1, §2, §3, §4, §5, §6, §7, §8

HCC1954 = test: cells; format: cell-based
Protocol: as §1, §2, §3, §4, §5, §6, §7, §8

M4A4 = test: cells; format: cell-based
Protocol: as §1, §2, §3, §4, §5, §6, §7, §8

MDAMB134 = test: cells; format: cell-based
Protocol: as §1, §2, §3, §4, §5, §6, §7, §8

MDAMB436L = test: cells; format: cell-based
Protocol: as §1, §2, §3, §4, §5, §6, §7, §8

SUM229PE = test: cells; format: cell-based
Protocol: as §1, §2, §3, §4, §5, §6, §7, §8

UACC812 = test: cells; format: cell-based
Protocol: as §1, §2, §3, §4, §5, §6, §7, §8

UACC893D = test: cells; format: cell-based
Protocol: as §1, §2, §3, §4, §5, §6, §7, §8

[1] = Homo sapiens, 50% net loss of cells vs time 0, read-out: LC50 (the source's name)
[2] = Homo sapiens, 72 h, three-day drug treatment, read-out: gIC50

With `COc1ncc(-c2ccc3nccc(-c4ccnnc4)c3c2)cc1NS(=O)(=O)c1ccc(F)cc1F` [Compound B, 2,4-difluoro-N-{2-(methyloxy)-5-[4-(4-pyridazinyl)-6-quinolinyl]-3-pyridinyl}benzenesulfonamide] the IC50 (KPL-1; KPL-1, high seeding density, 72 h, read-out: High Density gIC50) was 2.7 nM, the IC50 (KPL-1; KPL-1, low seeding density, 72 h, read-out: Low Density gIC50) was 2 nM and the IC50 (KPL-1; KPL-1, mean of low and high density, read-out: Mean gIC50) was 2.35 nM. For the same compound, the “High Density Y-Min” value (KPL-1; KPL-1, high density, % of cells at T = 0) was 130.2%, the “Low Density Y-Min” value (KPL-1; KPL-1, low density, % of cells at T = 0) was 126.6% and the TGI (184A1; 184A1, total growth inhibition) was 16.3 nM. It also gave an IC50 (184A1; Homo sapiens, 72 h, 184A1, three-day drug treatment, read-out: gIC50) of 1.6 nM, a TGI (AU565; AU565, total growth inhibition) of 6.7 µM and an IC50 (AU565; Homo sapiens, 72 h, AU565, three-day drug treatment, read-out: gIC50) of 7.2 nM. The CC50 (AU565; Homo sapiens, AU565, 50% net loss of cells vs time 0, read-out: LC50 (the source's name)) was greater than 33 µM, the TGI (BT474; BT474, total growth inhibition) was 20.1 nM and the IC50 (BT474; Homo sapiens, BT-474, 72 h, BT474, three-day drug treatment, read-out: gIC50) was 4.8 nM. The CC50 (BT474; Homo sapiens, BT-474, BT474, 50% net loss of cells vs time 0, read-out: LC50 (the source's name)) was 119 nM, the TGI (BT549; BT549, total growth inhibition) was greater than 33 µM and the IC50 (BT549; Homo sapiens, BT-549, 72 h, BT549, three-day drug treatment, read-out: gIC50) was 42.7 nM. For the same compound, the CC50 (BT549; Homo sapiens, BT-549, BT549, 50% net loss of cells vs time 0, read-out: LC50 (the source's name)) was greater than 33 µM, the TGI (HCC1954; HCC1954, total growth inhibition) was 32.3 nM and the IC50 (HCC1954; Homo sapiens, 72 h, HCC1954, three-day drug treatment, read-out: gIC50) was 14.3 nM. The CC50 (HCC1954; Homo sapiens, HCC1954, 50% net loss of cells vs time 0, read-out: LC50 (the source's name)) was 54.2 nM, the IC50 (M4A4; Homo sapiens, 72 h, M4A4, three-day drug treatment, read-out: gIC50) was 30.2 nM and the CC50 (M4A4; Homo sapiens, M4A4, 50% net loss of cells vs time 0, read-out: LC50 (the source's name)) was greater than 33 µM. For the same compound, the TGI (M4A4; M4A4, total growth inhibition) was 281.8 nM, the IC50 (MDAMB134; Homo sapiens, 72 h, MDAMB134, three-day drug treatment, read-out: gIC50) was 13.2 nM and the CC50 (MDAMB134; Homo sapiens, MDAMB134, 50% net loss of cells vs time 0, read-out: LC50 (the source's name)) was 224 nM. For the same compound, the TGI (MDAMB134; MDAMB134, total growth inhibition) was 60.3 nM, the CC50 (MDAMB436L; [1]) was greater than 33 µM and the IC50 (MDAMB436L; [2]) was 13.2 nM. For the same compound, the TGI (MDAMB436L; total growth inhibition) was greater than 33 µM, the CC50 (SUM229PE; [1]) was 126 nM and the IC50 (SUM229PE; [2]) was 2.5 nM. For the same compound, the TGI (SUM229PE; total growth inhibition) was 17.4 nM, the IC50 (UACC812; Homo sapiens, UACC-812, 72 h, UACC812, three-day drug treatment, read-out: gIC50) was 4.9 nM and the TGI (UACC812; UACC812, total growth inhibition) was 24.0 nM. It also gave an IC50 (UACC893D; [2]) of 8.8 nM and a TGI (UACC893D; total growth inhibition) of 20.1 nM.
